Source: US20260133193A1, “COMPOSITIONS AND METHODS FOR TREATING INFLAMMATORY DISEASES” (University of Washington, priority 2018, published 2026)

Test system: ncf1 (p47 phox)
Test: p47 phox (ncf1) S345 phosphorylation, phosphoproteomics and Western blot
Assay type: cell-based, human
Settings: R848 activation
Method: Another target of TLR7/8 stimulation was ncf1 (p47 phox). Ncf1 was phosphorylated at S345, a known target site involved in activation of the NADPH oxidase complex. […] The experiment was repeated three times; combined results were compared using paired t test (P=0.044). Neutrophils were incubated with R848 in the absence or presence of the PI3K inhibitor Ly294002 and analyzed for pS345 or total levels of p47 phox using Western Blot. The experiment was repeated four times; combined results were compared using paired t test (No stim, P=0.03; R848+LY294002, P=0.0011). […] Briefly, neutrophils were treated with inhibitors of NADPH oxidase prior to addition of R848 and analyzed for cell surface expression of FcgRIIA by flow cytometry. […] Briefly, neutrophils from healthy individuals (HV, n=18) and CGD patients (n=4) were stimulated with R848 and analyzed for FcgRIIA levels by flow cytometry. The data were analyzed using paired t test (HC, P<0.0001) and unpaired t test (HC vs CGD, P=0.0097). Neutrophils from healthy individuals (HV, n=13) and CGD patients (n=3) were activated by R848 and analyzed for CD66b expression by flow cytometry using paired t test (HC, P<0.0001; CGD, P=0.039). […] Briefly, neutrophils were activated with LPS or PAM3CSK4 in presence of DPI and analyzed for FcgRIIA levels by flow cytometry. […]

CCOCc1nc2c(N)nc3ccccc3c2n1CC(C)(C)O [R848]
phosphorylation of ncf1 (p47 phox) at S345: phosphorylated (p47 phox) at S345
